Calls of active or inactive are those of the source. The rule behind the calls is not given here.
What was measured:
[1] = test system: pre-microRNA 136; assay: Binding affinity to C-bulge site of pre-miR-136 RNA (unknown origin) at RNA to compound molar ratio of 1:0 by NMR titration assay; assay type: nucleic-acid assay
[2] = (§1) Binding affinity to pre-miR-136 RNA hairpin mutant (unknown origin) assessed as reduction in human recombinant Dicer-mediated substrate cleavage by measuring cleavage efficiency at 200 uM incubated for 30 mins using 32P-labeled RNA by denaturing polyacrylamide gel electrophoresis method (reference value: 59.1 +/- 2.4%); parameters: scale not given: the % may be the effect or the level left
[3] = test system: pre-microRNA 136; assay: Binding affinity to pre-miR-136 RNA (unknown origin) assessed as reduction in initial velocity of human recombinant Dicer-mediated substrate cleavage at 100 uM incubated for 30 mins using 32P-labeled RNA by denaturing polyacrylamide gel electrophoresis method; assay type: nucleic-acid assay
[4] = test system: pre-microRNA 136; assay: Binding affinity to hairpin loop site of pre-miR-136 RNA (unknown origin) at RNA to compound molar ratio of 1:0 by NMR titration assay; assay type: nucleic-acid assay
[5] = test system: pre-microRNA 136; assay: Binding affinity to internal loop site of pre-miR-136 RNA (unknown origin) at RNA to compound molar ratio of 1:0 by NMR titration assay; assay type: nucleic-acid assay
[6] = test system: pre-microRNA 136; assay: Binding affinity to pre-miR-136 RNA (unknown origin) assessed as reduction in Km(app) for human recombinant Dicer-mediated substrate cleavage at 100 uM incubated for 30 mins using 32P-labeled RNA by denaturing polyacrylamide gel electrophoresis method; assay type: nucleic-acid assay
[7] = target: pre-microRNA 136; assay: Binding affinity to pre-miR-136 RNA (unknown origin) at 0.063 to 1 uM by SPR assay; assay type: nucleic-acid assay
[8] = Binding affinity to pre-miR-136 RNA hairpin mutant (unknown origin) at <0.5 uM by SPR assay
[9] = Binding affinity to pre-miR-136 RNA delta-internal loop mutant (unknown origin) assessed as normalized equilibrium binding response (Req) value at 1 uM by SPR assay relative to control
[10] = test system: pre-microRNA 136; assay: as §1, with “RNA” for “RNA hairpin mutant”, “94.3” for “59.1”, “2.3%)” for “2.4%)”; assay type: nucleic-acid assay; parameters: scale not given: the % may be the effect or the level left
[11] = Binding affinity to pre-miR-136 RNA delta-C-bulge mutant (unknown origin) assessed as normalized equilibrium binding response (Req) value at 1 uM by SPR assay relative to control
[12] = Binding affinity to pre-miR-136 RNA delta-internal loop mutant (unknown origin) at 0.063 to 1 uM by SPR assay
[13] = test system: pre-microRNA 136; assay: Binding affinity to pre-miR-136 RNA (unknown origin) assessed as reduction in human recombinant Dicer-mediated substrate cleavage incubated for 30 mins using 32P-labeled RNA by denaturing polyacrylamide gel electrophoresis method; assay type: nucleic-acid assay
[14] = Binding affinity to pre-miR-136 RNA delta-C-bulge mutant (unknown origin) at 0.063 to 1 uM by SPR assay
[15] = test system: pre-microRNA 136; assay: Binding affinity to pre-miR-136 RNA (unknown origin) assessed as normalized equilibrium binding response (Req) value at 1 uM by SPR assay relative to control; assay type: nucleic-acid assay
[16] = test system: pre-microRNA 136; assay: Binding affinity to pre-miR-136 RNA (unknown origin) at 63 nM by SPR assay; assay type: nucleic-acid assay
[17] = as §1, with “delta-C-bulge” for “hairpin”, “89.1” for “59.1”, “2.3%)” for “2.4%)”; parameters: scale not given: the % may be the effect or the level left
[18] = Binding affinity to pre-miR-136 RNA hairpin mutant (unknown origin) at 0.063 to 1 uM by SPR assay
[19] = as §1, with “delta-internal loop” for “hairpin”, “94.5” for “59.1”, “1.4%)” for “2.4%)”; parameters: scale not given: the % may be the effect or the level left
[20] = test system: pre-microRNA 136; assay: Binding affinity to pre-miR-136 RNA (unknown origin) assessed as reduction in Vmax(app) for human recombinant Dicer-mediated substrate cleavage at 100 uM incubated for 30 mins using 32P-labeled RNA by denaturing polyacrylamide gel electrophoresis method; assay type: nucleic-acid assay
[21] = Binding affinity to pre-miR-136 RNA delta-C-bulge mutant (unknown origin) at <0.5 uM by SPR assay

## NCCCNc1ccc2c(n1)nc(NCCCN)c1ccccc12
[1]
  Activity: Active
[2]
  Activity: 58.2%
[3]
  Activity: Active
[4]
  Activity: inactive
[5]
  Activity: inactive
[6]
  Km: 0.0279 µM
[7]; read-out: Kd
  Kd: 0.47 µM
[8]
  Activity: inactive
[9]
  Activity: 4.73 RU
[10]
  Activity: 71.9%
[11]
  Activity: 1.73 RU
[12]; read-out: Kd
  Kd: 0.45 µM
[13]
  Activity: Dose-dependent effect
[14]; read-out: Kd
  Kd: 3200 µM
[15]
  Activity: 4.32 RU
[16]
  Activity: Active
[17]
  Activity: 80.5%
[18]; read-out: Kd
  Kd: 65000 µM
[19]
  Activity: 80.6%
[20]
  Vmax(app): 0.38 nM/min
[21]
  Activity: inactive

## Nc1ccc2ccc(N)nc2n1
[7]
  Kd: Not Active
[12]
  Kd: Not Active
[14]
  Kd: Not Active
[18]
  Kd: Not Active

Source: ChEMBL document CHEMBL4392847, “Inhibition of pre-miRNA-136 processing by Dicer with small molecule BzDANP suggested the formation of ternary complex of pre-miR-136-BzDANP-Dicer” (Bioorg Med Chem, 2019)
